Here are results for one compound from US20190040025A1, “INDOLEAMINE 2,3-DIOXYGENASE INHIBITOR, PREPARATION METHOD THEREFOR, AND APPLICATION” (Jiangsu Hansoh Pharmaceutical Group Co., Ltd., priority 2016, published 2019).

A word on the pIC50: it is the IC50 on a negative log10 scale, so that one unit is a factor of ten. Usually AUC(0-inf) stands for total exposure, with the tail of the curve extrapolated. A lower AUC(0-inf) goes with less exposure. By Cmax is commonly meant the peak of the concentration-time curve. One may read the Tmax as the time from dosing to the highest level. As usually defined, the half-life is the time needed for the level to fall by half in the phase considered.

Data set [1] has as its target T1, indoleamine 2,3-dioxygenase (IDO) in HeLa cells (Homo sapiens, UniProt P14902).
T1 construct: Interferon γ induced the expression of IDO in HeLa cells; host or cells: HeLa cells induced with interferon γ
The experiment in a line: Cell model test for IDO activity inhibition (interferon γ induced HeLa cells). It counts as cell-based. The conditions noted are these: interferon γ 50 ng/mL, 24 hours, read-out: Cytological Test IC50. The procedure:
Interferon γ induced the expression of IDO in HeLa cells. This model was used to test the inhibitory activity of compounds on indoleamine 2,3-dioxygenase (IDO). The culture medium of HeLa cells (ATCC) was phenol red-free RPMI-1640 containing 100 μM L-tryptophan. The stock solution of the test compound was prepared to 10 mM with dimethyl sulfoxide, and diluted with dimethyl sulfoxide to the highest concentration of the test during the experiment, then diluted in three-fold gradient, and generally diluted to 8 to 10 concentration points. Duplicate wells were set for each concentration point. The final concentration of DMSO was 0.5%, and internal reference compound was included in each experiment.
The procedure of the experiment was as follows: 20,000 HeLa cells (ATCC) per well were added on a 96-well culture plate and incubated overnight. After 24 hours, interferon γ (final concentration of 50 ng/mL) and different concentrations of the test compound and the internal reference compound were added to the incubated cells. After 24 hours, 140 μL of the supernatant/well was transferred to a new 96-well plate, and 10 μL of 6.1 N trichloroacetic acid was added to each well. The plate was incubated for 30 minutes at 50° C. to hydrolyze N-formyl-kynurenine to kynurenine. The reaction mixture was centrifuged at 2500 rpm for 10 minutes to remove the precipitate, and the supernatant (100 μL) was transferred to another new 96-well plate. 100 μL of 2% (W/V) p-(dimethylamino)benzaldehyde (p-DMBA)/glacial acetic acid solution was added to each well. The absorbance at 490 nm was read on a BioTek Synergy H1 microplate reader […].
The original data of the absorbance at 490 nm read on a microplate reader were analyzed. The inhibition of IDO enzyme activity was calculated at different concentrations of the test compound. The half-inhibitory concentration IC50 value of the compound was obtained by non-linear fitting analysis of inhibition percentage data by GraphPad Prism software.

A short description of data set [2]: Pharmacokinetic (PK) analysis of rat plasma. The class given is in vivo. To be noted: Sprague-Dawley, po, 20 mg/kg, SD rats, single gavage, 20 mg/10 mL/kg. How it is done: The pharmacokinetics test of the test compound was performed with Sprague Dawley (SD) rats (Shanghai Slac Laboratory Animal Co., LTD).
Mode of administration: Single gavage.
U Dosage: 20 mg/10 mL/kg.
Formulation prescription: 3% dimethylacetamide and 20% hydroxypropyl-3-cyclodextrin.
Sampling points: before administration and 15 minutes, 0.5, 1, 2, 4, 6, 8 and 24 hours after administration.
Plasma sampling and sample processing: • 1) 0.2 ml of intravenous blood was collected and placed in an EDTA-2K tube. The blood was centrifuged at 4° C. for 5 minutes at 6,000 rpm to separate the plasma, which was stored at −80° C. • 2) 160 μL of acetonitrile were added to 40 μL of plasma sample, standard, and internal reference. The mixture was shaken vertically for 3 minutes, and centrifuged at 4000 rpm for 10 minutes. 100 μL of the supernatant were taken, and then added with 100 μL of deionized water and mixed well. 100 μL of the resulting solution was taken for LC/MS/MS analysis. The instrument for plasma LC/MS/MS analysis was AB Sciex API 4000.
Liquid Chromatography Analysis: • Liquid chromatography conditions: Shimadzu LC-20AD pump • Chromatographic column: phenomenex Gemiu 5 μm C18 50×4.6 mm • Mobile phase: solution A was 0.1% formic acid solution, and solution B was acetonitrile • Flow rate: 0.8 mL/min • Elution time: 0-3.01 minutes and the eluent was as follows:
• Mass spectrometry analysis: setup conditions of mass spectrometer: positive ion electrospray ionization (ESI) mode. • Experimental results: the main parameters of pharmacokinetics were calculated by WinNonlin 6.1 and the experimental results are shown in the following table: […]

pIC50: −log10 of the molar value.

T1 sequence (P14902 whole entry): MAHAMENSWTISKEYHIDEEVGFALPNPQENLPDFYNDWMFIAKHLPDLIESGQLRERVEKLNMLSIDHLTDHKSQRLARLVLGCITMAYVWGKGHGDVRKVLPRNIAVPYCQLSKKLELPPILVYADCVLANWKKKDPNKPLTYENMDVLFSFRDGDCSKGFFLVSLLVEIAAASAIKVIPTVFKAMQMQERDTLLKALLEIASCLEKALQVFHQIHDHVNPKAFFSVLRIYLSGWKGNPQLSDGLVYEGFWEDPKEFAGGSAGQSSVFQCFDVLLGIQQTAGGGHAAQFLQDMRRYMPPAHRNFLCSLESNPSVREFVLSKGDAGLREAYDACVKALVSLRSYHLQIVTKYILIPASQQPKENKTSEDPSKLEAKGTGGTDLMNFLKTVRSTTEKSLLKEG

On to `CS(=O)(CCNc1nonc1/C(=N/O)Nc1ccc(F)c(Br)c1)=NS(=O)(=O)C1CC1` (centres unmarked) [Example 15, (Z)—N-(3-bromo-4-fluorophenyl)-4-((2-(N-(cyclopropylsulfonyl)-S-methylsulfonimidoyl)ethyl)amino)-N′-hydroxy-1,2,5-oxadiazole-3-carboximidamide], for which the pIC50 in data set [1] is 8.00. For the same compound, in data set [2], the area under the curve AUC(0-inf) was 5180 ng·h/mL, the Cmax was determined as 1350 ng/mL, the Tmax stood at 0.5 h and the half-life is 3.54 h.
